According to patent US10426168B2, “Agent for controlling noxious arthropods” (Sumitomo Chemical Company, Limited, priority 2015, dated 2019):

Test system: common house mosquitoes (Culex pipens pallens) at the last instar larval stages
Assay: Test Example 2: mortality of common house mosquito larvae in treated water
Format: in vivo
Conditions: 24 h, 3.5 ppm in water, 30 last instar larvae, after 1 day
Description: Each of the formulations that were prepared in Formulation Example 15 containing Present compounds (1), (2), (3) and (4) was diluted with water so as to make a concentration of each of the compound 500 ppm, to obtain a diluted solution containing Present compounds (1), (2), (3) and (4), respectively. The above-mentioned diluted solutions were added to 100 mL of ion-exchanged water (Concentrations of Present compounds were 3.5 ppm). Thirty (30) heads of common house mosquitoes (Culex pipens pallens) at the last instar larval stages were released into the resulting diluted solutions having the concentration of 3.5 ppm, and after 1 day, the life and death of the insects were examined, and the mortality of insects was calculated by the following equation. Mortality (%)=(Number of the dead insects/Number of test insects)×100

SMILES | mortality at 3.5 ppm [%]
CC(C)(N)CNC(=O)c1cc(COCc2ccc3ccccc3c2)on1 [(2)] | ≥ 91
CCCCc1cc(C(=O)NCC(C)(C)N)no1 [(3)] | ≥ 91
CC(C)(N)CNC(=O)c1cc(COCc2ccccc2)on1 [(1)] | ≥ 91
CCCCc1cc(C(=O)NC(C)(C)C(C)(C)N)no1 [(4)] | ≥ 91
